Data published in US12570639B2, “Tetrahydroquinoline derivative and medicinal use thereof” (Toray Industries, Inc., priority 2020, dated 2026).

Test system: Human fibrosarcoma cells (HT-1080 cells)
Test: In vitro inhibitory action against ferroptosis (Erastin-induced cell death, Cell Counting Kit-8)
Format: cell-based
Details: Erastin 3 μmol/L, 24 hours
Experimental: The inhibitory action against ferroptosis of the tetrahydroquinoline derivative (I) or a pharmaceutically acceptable salt thereof was evaluated with Human fibrosarcoma cells (HT-1080 cells), by using, as an index, the inhibitory action against the cell death induced by treatment with a ferroptosis inducer, Erastin.
HT-1080 cells (ATCC) were cultured in a mixture (hereinafter referred to as vehicle) composed of DMEM/F12 (Thermo Fisher Scientific, Inc.), a final concentration of 10% fetal bovine serum (Thermo Fisher Scientific, Inc.), and a final concentration of 1% penicillin-streptomycin solution (Nacalai Tesque, Inc.). Cells were seeded into 96-well plates (Corning Inc.) at 5×10^4 cells/well and cultured overnight.
A test compound was dissolved in DMSO, and the resulting solution was diluted in the vehicle to a final concentration of 1% DMSO and then used. […] Thirty minutes after the addition of the test compound, Erastin (Cayman Chemical Co.) diluted in the vehicle at a final concentration of 3 μmol/L was added to wells. The wells added with the test compound and Erastin were grouped as “test compound,” and the wells added with no test compound and no Erastin were grouped as “background,” and the wells added with no test compound but with Erastin were grouped as “control.” Twenty-four hours after the addition of Erastin, 5 μL of Cell Counting Kit-8 (Dojindo Laboratories) was added to each well and incubated for 4 hours, and the absorbance at 450 nm was then measured for each well (N=2). […] Ferroptosis inhibition rate (%)=[1−{(Average absorbance value at 450 nm measured when a test compound is added)−(Average absorbance value at 450 nm measured in the background)}/{(Average absorbance value at 450 nm measured in the control)−(Average absorbance value at 450 nm measured in the background)}]×100 Equation 1

[1] = evaluation concentration 30 μmol/L
[2] = evaluation concentration 50 μmol/L

Compound	Ferroptosis inhibition rate (%) [1] [%]	Ferroptosis inhibition rate (%) [2] [%]
7-fluoro-(1H-pyrazol-4-yl)-1,2,3,4-tetrahydroquinoline [Example 140]	72.81	
COC(=O)[C@@H]1C[C@H](c2ccccc2)Nc2ccccc21 (relative stereo) [Example 88, methyl (2R*, 4R*)-2-phenyl-1,2,3,4-tetrahydroquinolin-4-carboxylate]	97.70	
OC[C@@H]1C[C@H](c2ccccc2)Nc2ccccc21 (relative stereo) [Example 89, ((2R*,4R*)-2-phenyl-1,2,3,4-tetrahydroquinolin-4-yl)methanol]	99.12	
C[C@@H]1C[C@H](c2ccccc2)Nc2ccccc21 (relative stereo) [Example 90, (2R*,4R*)-4-methyl-2-phenyl-1,2,3,4-tetrahydroquinoline]	102.4	
COc1ccc(C2CCc3ccccc3N2)cc1 (centres unmarked) [Example 4, 2-(4-methoxyphenyl)-1,2,3,4-tetrahydroquinoline]		99.10
COc1cccc(C2CCc3ccccc3N2)c1 (centres unmarked) [Example 5, 2-(3-methoxyphenyl)-1,2,3,4-tetrahydroquinoline]		99.69
COc1ccccc1C1CCc2ccccc2N1 (centres unmarked) [Example 6, 2-(2-methoxyphenyl)-1,2,3,4-tetrahydroquinoline]		90.22
COc1ccc2c(c1)CCC(c1ccc3c(c1)OCO3)N2 (centres unmarked) [Example 7, 2-(benzo[d][1,3]dioxol-5-yl)-6-methoxy-1,2,3,4-tetrahydro-quinoline]		93.95
COc1ccc(C2CCc3ccc(OC)cc3N2)cc1 (centres unmarked) [Example 8, 7-methoxy-2-(4-methoxyphenyl)-1,2,3,4-tetrahydroquinoline]		100.6
c1ccc2c(c1)CCC(c1ccc3c(c1)OCO3)N2 (centres unmarked) [Example 9, 2-(benzo[d][1,3]dioxol-5-yl)-1,2,3,4-tetrahydroquinoline]		88.84
FC(F)(F)c1ccccc1C1CCc2ccccc2N1 (centres unmarked) [Example 10, 2-(2-(trifluoromethyl)phenyl)-1,2,3,4-tetrahydroquinoline]		103.9
c1ccc2c(c1)CCC(c1cn[nH]c1)N2 (centres unmarked) [Example 12, 2-(1H-pyrazol-4-yl)-1,2,3,4-tetrahydroquinoline]	110.9	
c1ccc2c(c1)CCC(c1cn[nH]c1)N2 (centres unmarked) [Example 13, 2-(1H-pyrazol-4-yl)-1,2,3,4-tetrahydroquinoline]	119.6	
Cn1cc(C2CCc3ccccc3N2)cn1 (centres unmarked) [Example 14, 2-(1-methyl-1H-pyrazol-4-yl)-1,2,3,4-tetrahydroquinoline]		97.39
COc1ccc(C2CCc3ccccc3N2)cn1 (centres unmarked) [Example 15, 2-(6-methoxypyridin-3-yl)-1,2,3,4-tetrahydroquinoline]	89.22	
COC(=O)c1ccc(C2CCc3ccccc3N2)cc1 (centres unmarked) [Example 17, methyl 4-(1,2,3,4-tetrahydroquinolin-2-yl)benzoate]		98.12
CC(C)(O)c1ccc(C2CCc3ccccc3N2)cc1 (centres unmarked) [Example 18, 2-(4-(1,2,3,4-tetrahydroquinolin-2-yl)phenyl)propan-2-ol]	66.52	
NS(=O)(=O)c1cccc(C2CCc3ccccc3N2)c1 (centres unmarked) [Example 19, 3-(1,2,3,4-tetrahydroquinolin-2-yl)benzenesulfonamide]	100.5	
NS(=O)(=O)c1ccccc1C1CCc2ccccc2N1 (centres unmarked) [Example 20, 2-(1,2,3,4-tetrahydroquinolin-2-yl)benzenesulfonamide]	95.88	
c1ccc2c(c1)CCC(c1cc[nH]n1)N2 (centres unmarked) [Example 22, 2-(1H-pyrazol-3-yl)-1,2,3,4-tetrahydroquinoline]	103.2	
O=C1CCc2cc(C3CCc4ccccc4N3)ccc2N1 (centres unmarked) [Example 23, 1,2,3,3′,4,4′-hexahydro-[2,6′-biquinolin]-2′(1′H)-one]	68.45	
CN1C(=O)CCc2cc(C3CCc4ccccc4N3)ccc21 (centres unmarked) [Example 24, 1′-methyl-1,2,3,3′,4,4′-hexahydro-[2,6′-biquinolin]-2′(1′H)-one]	59.67	
O=C1NCc2cc(C3CCc4ccccc4N3)ccc21 (centres unmarked) [Example 25, 5-(1,2,3,4-tetrahydroquinolin-2-yl)isoindolin-1-one]	105.3	
Fc1cccc(C2CCc3ccccc3N2)c1 (centres unmarked) [Example 27, 2-(3-fluorophenyl)-1,2,3,4-tetrahydroquinoline]		113.1

Compound	Ferroptosis inhibition rate (%) [1] [%]	Ferroptosis inhibition rate (%) [2] [%]
Fc1ccccc1C1CCc2ccccc2N1 (centres unmarked) [Example 28, 2-(2-fluorophenyl)-1,2,3,4-tetrahydroquinoline]		109.4
FC(F)(F)c1cccc(C2CCc3ccccc3N2)c1 (centres unmarked) [Example 30, 2-(3-(trifluoromethyl)phenyl)-1,2,3,4-tetrahydroquinoline]		83.09
CCN(CC)C(=O)c1ccc(C2CCc3ccccc3N2)cc1 (centres unmarked) [Example 39, N,N-diethyl-4-(1,2,3,4-tetrahydroquinolin-2-yl)benzamide]	101.5	
CCNC(=O)c1ccc(C2CCc3ccccc3N2)cc1 (centres unmarked) [Example 40, N-ethyl-4-(1,2,3,4-tetrahydroquinolin-2-yl)benzamide]	111.1	
O=C(c1ccc(C2CCc3ccccc3N2)cc1)N1CCCCC1 (centres unmarked) [Example 41, piperidin-1-yl(4-(1,2,3,4-tetrahydroquinolin-2-yl)phen-yl)methanone]	102.2	
O=C(c1ccc(C2CCc3ccccc3N2)cc1)N1CCOCC1 (centres unmarked) [Example 42, morpholino(4-(1,2,3,4-tetrahydroquinolin-2-yl)phenyl)methanone]	98.89	
CN1CCN(C(=O)c2ccc(C3CCc4ccccc4N3)cc2)CC1 (centres unmarked) [Example 43, (4-methylpiperazin-1-yl)(4-(1,2,3,4-tetrahydroquinolin-2-yl)phenyl)methanone]	107.1	
CNC(=O)c1cccc(C2CCc3ccccc3N2)c1 (centres unmarked) [Example 44, N-methyl-3-(1,2,3,4-tetrahydroquinolin-2-yl)benzamide]		114.3
N#Cc1cccc(C2CCc3ccccc3N2)c1 (centres unmarked) [Example 45, 3-(1,2,3,4-tetrahydroquinolin-2-yl)benzonitrile]	109.1	
NC(=O)c1cccc(C2CCc3ccccc3N2)c1 (centres unmarked) [Example 46, 3-(1,2,3,4-tetrahydroquinolin-2-yl)benzamide]	109.0	
OCc1ccccc1C1CCc2ccccc2N1 (centres unmarked) [Example 47, (2-(1,2,3,4-tetrahydroquinolin-2-yl)phenyl)methanol]	85.21	
OCc1cccc(C2CCc3ccccc3N2)c1 (centres unmarked) [Example 48, (3-(1,2,3,4-tetrahydroquinolin-2-yl)phenyl)methanol]	81.80	
OCc1ccc(C2CCc3ccccc3N2)cc1 (centres unmarked) [Example 49, (4-(1,2,3,4-tetrahydroquinolin-2-yl)phenyl)methanol]	99.20	
c1ccc2c(c1)CCC(c1cnsc1)N2 (centres unmarked) [Example 50, 4-(1,2,3,4-tetrahydroquinolin-2-yl)isothiazole]	103.2	
OCc1cccc2c1CCC(c1ccccc1)N2 (centres unmarked) [Example 51, (2-phenyl-1,2,3,4-tetrahydroquinolin-5-yl)methanol]		84.55
OCc1ccc2c(c1)NC(c1ccccc1)CC2 (centres unmarked) [Example 52, (2-phenyl-1,2,3,4-tetrahydroquinolin-7-yl)methanol]		74.96
c1ccc(C2CCc3ccccc3N2)nc1 (centres unmarked) [Example 53, 2-(pyridin-2-yl)-1,2,3,4-tetrahydroquinoline]		111.3
CC(C)c1ccc2c(c1)CCC(c1ccccc1)N2 (centres unmarked) [Example 54, 6-isopropyl-2-phenyl-1,2,3,4-tetrahydroquinoline]	109.9	
Oc1ccc2c(c1)CCC(c1ccccc1)N2 (centres unmarked) [Example 55, 2-phenyl-1,2,3,4-tetrahydroquinolin-6-ol]	93.72	
COC(=O)c1ccc2c(c1)CCC(c1ccccc1)N2 (centres unmarked) [Example 56, methyl 2-phenyl-1,2,3,4-tetrahydroquinoline-6-carboxylate]		100.1
CC(C)(O)c1ccc2c(c1)CCC(c1ccccc1)N2 (centres unmarked) [Example 57, 2-(2-phenyl-1,2,3,4-tetrahydroquinolin-6-yl)propan-2-ol]	89.18	
c1ccc(C2CCc3cc(CN4CCOCC4)ccc3N2)cc1 (centres unmarked) [Example 59, 4-((2-phenyl-1,2,3,4-tetrahydroquinolin-6-yl)methyl)morph-oline]	76.73	
CC(C)(C)OC(=O)Nc1ccc2c(c1)CCC(c1ccccc1)N2 (centres unmarked) [Example 63, tert-butyl (2-phenyl-1,2,3,4-tetrahydroquinolin-6-yl)carbamate]		68.73
